# Reference: patent publication US7871960B2, “1-(Imidazolin-2-yl)amino-1,2-diphenylethane compounds for combating animal pests” (BASF SE, priority 2005, dated 2011)
# Structures can show the parent of a compound that is named as a salt.
# Assays:
# Megoura viciae = test: Vetch aphid (Megoura viciae) mortality on sprayed bean leaf disks in microtiterplates; format: in vivo; conditions: foliar, 144 h, bean leaf disks sprayed with 2.5 μl, 6 days, read-out: mortality in comparison with untreated controls
# Experimental: The active compounds were formulated in 1:3 DMSO:water. Bean leaf disks were placed into microtiterplates filled with 0.8% agar-agar and 2.5 ppm OPUS™. The leaf disks were sprayed with 2.5 μl of the test solution and 5 to 8 adult aphids were placed into the microtiterplates which were then closed and kept at 22-24° C. and 35-45% under fluorescent light for 6 days. Mortality was assessed on the basis of vital, reproduced aphids. Tests were replicated 2 times.
melting point [°C],SMILES,mortality at 2500 ppm (Megoura viciae) [%]
162 to 164,"Clc1cccc(CC(N=C2NCCN2)c2ccccc2)c1 (centres unmarked) (as salt: salt) [Example 1.1, [2-(3-Chloro-phenyl)-1-phenyl-ethyl]-(4,5-dihydro-1H-imidazol-2-yl)-amine hydroiodide]",–
–,"CC(=O)N1CCN=C1NC(Cc1ccccc1)c1ccccc1 (centres unmarked) [Example 2.1, 1-[2-(1,2-Diphenylethylamino)-4,5-dihydroimidazol-1-yl]-ethanone]",> 80
